As a reminder, the EC50 is the midpoint of the concentration-response curve. A lower EC50 goes with higher potency in that assay.

Consider six compounds from publication PMC6277198, “Molecular basis for activation of lecithin:cholesterol acyltransferase by a compound that increases HDL cholesterol” (eLife, 2018).

SMILES strings stand for the structures. Positions count from the first letter of the chain named. Entries after “also recorded” stand apart in the source; their conditions may differ.

One experiment addresses T1, WT LCAT (Homo sapiens, UniProt P04180).
T1 sequence (P04180 25-440): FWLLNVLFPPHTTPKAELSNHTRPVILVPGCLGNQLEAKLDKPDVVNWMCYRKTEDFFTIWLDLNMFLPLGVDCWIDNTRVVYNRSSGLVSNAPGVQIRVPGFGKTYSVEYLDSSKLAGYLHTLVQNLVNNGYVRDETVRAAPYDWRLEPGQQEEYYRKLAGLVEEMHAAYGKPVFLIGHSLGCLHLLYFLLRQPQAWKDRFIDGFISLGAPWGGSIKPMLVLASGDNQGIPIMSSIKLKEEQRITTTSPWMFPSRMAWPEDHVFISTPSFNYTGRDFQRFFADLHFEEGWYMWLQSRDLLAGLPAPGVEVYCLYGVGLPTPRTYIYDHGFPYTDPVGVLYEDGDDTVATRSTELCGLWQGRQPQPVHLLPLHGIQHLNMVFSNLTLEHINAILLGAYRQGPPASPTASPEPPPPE
The experiment in a line: Differential scanning fluorimetry. The class given is binding. On the set-up: hydrolysis of 4-methylumbelliferyl palmitate (MUP) by full-length LCAT; made in house; host or cells: HEK293F (transient transfection, secreted). The note with it: for Thermal stabilization (DSF): WT LCAT; for Thermal stabilization of WT LCAT (DSF): compound at 10 μM. Here is the method:
(§1) Tm values were determined using an Applied Biosystems QuantStudio 7 Flex qPCR machine with two replicates performed at least in triplicate. LCAT at 0.05 mg mL^−1 was diluted into reaction buffer containing 5X Sypro Orange in a final volume of 10 μL in 384-well PCR plates. DMSO or compound 1 was added so that all reactions contained 3% DMSO. The reactions were run from 25–95 °C with a ramp rate of 0.03 °C s^−1. Tm values were determined as the derivative using Protein Thermal Shift software. Significance was determined using a one-way analysis of variance followed by Tukey’s multiple comparisons post-test in GraphPad Prism.
(In general: In DSF a fluorescence change marks the thermal transition of the protein.)

A further experiment has as its target T2, LCAT G71I (Homo sapiens, UniProt P04180, G95I).
T2 construct: hydrolysis of 4-methylumbelliferyl palmitate (MUP) by full-length LCAT; made in house; host or cells: HEK293F (transient transfection, secreted)
T2 sequence (P04180 25-440 G95I): T1 sequence (P04180 25-440) with G71I
The experiment can be described thus: MUP hydrolysis (esterase) assay. The class given is biochemical. Particulars: compound titrated from 0.04 to 9.5 μM. Here is the method: (§2) The lipase activity of LCAT was measured using MUP as a substrate. The assay was performed at room temperature in 0.1 M sodium phosphate buffer, pH 7.4 containing 0.01% Triton X-100. 4 μL of LCAT (6 nM final concentration) were dispensed into a 1536-well Greiner solid black plate. The same volume of assay buffer was dispensed into column 1 and 2 for a no-enzyme control. […] After 15 min incubation, 2 μL MUP (16 μM final concentration) was added to initiate the reaction. The hydrolysis of MUP was monitored using a ViewLux plate reader (excitation 380 nm/emission 450 nm) for 20 min. The fluorescence signal was normalized against no-activator and no-enzyme control after subtraction of background signal (t = 0 min). To plot percent activation, in each assay 100% was set at the rate of LCAT or LCAT variant without compound. The resulting data were fitted to a sigmoidal dose response curve.

In a further experiment the target is T3, LCAT Y51S/G71I (Homo sapiens, UniProt P04180, G95I/Y75S).
T3 construct: hydrolysis of 4-methylumbelliferyl palmitate (MUP) by full-length LCAT; made in house; host or cells: HEK293F (transient transfection, secreted)
T3 sequence (P04180 25-440 Y75S/G95I): T1 sequence (P04180 25-440) with Y51S, G71I
The experiment can be described thus: MUP hydrolysis (esterase) assay. Type of experiment: biochemical. Particulars: compound titrated from 0.04 to 9.5 μM. Here is the method:
as §2

A further experiment has as its target T4, ∆N∆C-LCAT (Homo sapiens, UniProt P04180).
T4 construct: ∆N∆C-LCAT (residues 21–397), a truncation variant that lacks the dynamic N- and C-termini; made in house; host or cells: HEK293F
T4 sequence (P04180 45-421): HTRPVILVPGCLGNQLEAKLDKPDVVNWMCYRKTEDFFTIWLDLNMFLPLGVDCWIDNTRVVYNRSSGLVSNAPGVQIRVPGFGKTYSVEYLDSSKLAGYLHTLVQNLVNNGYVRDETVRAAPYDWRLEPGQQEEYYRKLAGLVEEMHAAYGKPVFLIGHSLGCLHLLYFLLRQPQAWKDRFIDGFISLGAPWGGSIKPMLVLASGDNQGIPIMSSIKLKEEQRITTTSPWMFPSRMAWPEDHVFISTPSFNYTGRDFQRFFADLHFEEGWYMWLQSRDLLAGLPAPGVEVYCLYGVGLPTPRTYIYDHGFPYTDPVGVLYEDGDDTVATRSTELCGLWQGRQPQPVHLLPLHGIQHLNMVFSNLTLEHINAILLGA
The experiment can be described thus: Differential scanning fluorimetry. Type of experiment: binding. Particulars: for Thermal stabilization (DSF): ∆N∆C LCAT. Here is the method: as §1

Another experiment concerns the target T5, ∆N∆C-IDFP LCAT (Homo sapiens, UniProt P04180).
T5 construct: ∆N∆C-LCAT (residues 21–397), a truncation variant that lacks the dynamic N- and C-termini; made in house; host or cells: HEK293F
T5 sequence (P04180 45-421): T4 sequence (P04180 45-421)
The experiment in a line: Differential scanning fluorimetry. The class given is binding. Here is the method: as §1

As to `O=C1CC(O)(C(F)(F)F)c2c(ncn2C2CCN(c3cnc(C(F)(F)F)cn3)CC2)N1` (stereo not shown) [compound 3, 7-Hydroxy-7-(trifluoromethyl)−1-(1-(5-(trifluoromethyl)pyrazin-2-yl)piperidin-4-yl)−6,7-dihydro-1H-imidazo[4,5-b]pyridin-5(4H)-one], the “Thermal stabilization (DSF)” value on WT LCAT, at ∆N∆C-LCAT and at ∆N∆C-IDFP LCAT was “stabilize” each time. For the same compound, the EC50 on LCAT G71I was > 5 µM. Further, the entries for the “Fold activation, MUP esterase assay” value on LCAT G71I and at LCAT Y51S/G71I were 1.5 ± 0.2 fold and 1.1 ± 0.06 fold, respectively. Also, the “MUP assay EC50” value at LCAT Y51S/G71I is reported as “no effect”.

Regarding `O=C1CC(O)(C(F)(F)F)c2c(ncn2C2CCNCC2)N1` (stereo not shown) [compound 6, 7-Hydroxy-1-(piperidin-4-yl)−7-(trifluoromethyl)−6,7-dihydro-1H-imidazo[4,5-b]pyridin-5(4H)-one], the “Thermal stabilization of WT LCAT (DSF)” value on WT LCAT is reported as “do not stabilize; also recorded: could not thermal stabilize”. Also, on LCAT G71I, the “Fold activation, MUP esterase assay” value is “no effect” and the “MUP assay EC50” value is given as “no effect”. At LCAT Y51S/G71I, the “Fold activation, MUP esterase assay” value is “no effect” and the “MUP assay EC50” value was “no effect”.

For `N#Cc1cnc(N2CCC(c3n[nH]c4c3C(O)(C(F)(F)F)CC(=O)N4)CC2)cc1C(F)(F)F` (stereo not shown) [compound 1, 6-(4-(4-Hydroxy-6-oxo-4-(trifluoromethyl)−4,5,6,7-tetrahydro-1H-pyrazolo[3,4-b]pyridin-3-yl)piperidin-1-yl)−4-(trifluoromethyl)nicotinonitrile], the “Thermal stabilization (DSF)” value at WT LCAT, at ∆N∆C-LCAT and on ∆N∆C-IDFP LCAT was “stabilize” throughout. Also, the concentration for a half-maximal effect (EC50) on LCAT G71I is > 5 µM. In addition, the “Fold activation, MUP esterase assay” value at LCAT G71I turned out to be 1.5 ± 0.4 fold; at LCAT Y51S/G71I, 1.3 ± 0.3 fold. The “MUP assay EC50” value at LCAT Y51S/G71I was “no response; also recorded: no effect”. On ∆N∆C-LCAT (compound 1 and IDFP combined, additive effect), the “∆Tm of ∆N∆C-LCAT” value was 12.7 ˚C.

Consider `O=c1cc(C(F)(F)F)c2c(ncn2C2CCN(c3cnc(C(F)(F)F)cn3)CC2)[nH]1` [compound 8, 7-(trifluoromethyl)−1-(1-(5-(trifluoromethyl)pyrazin-2-yl)piperidin-4-yl)−1H-imidazo[4,5-b]pyridin-5(4H)-one], for which, on WT LCAT, the “Thermal stabilization of WT LCAT (DSF)” value is reported as “do not stabilize; also recorded: could not thermal stabilize”. Moreover, at LCAT G71I, the EC50 is > 10 µM and the “Fold activation, MUP esterase assay” value was 1.2 ± 0.1 fold. Also, at LCAT Y51S/G71I, the EC50 is > 10 µM and the “Fold activation, MUP esterase assay” value stood at 1.1 ± 0.07 fold.

As to `O=C1CC(O)(C(F)(F)F)c2c(C3CCN(c4cnc(C(F)(F)F)cn4)CC3)n[nH]c2N1` (stereo not shown) [compound 2, 4-Hydroxy-4-(trifluoromethyl)−3-(1-(5-(trifluoromethyl)pyrazin-2-yl)piperidin-4-yl)−4,5-dihydro-1H-pyrazolo[3,4-b]pyridin-6(7H)-one], the “Thermal stabilization (DSF)” value at WT LCAT, at ∆N∆C-LCAT and on ∆N∆C-IDFP LCAT was “stabilize” in each case. Moreover, on LCAT G71I, the EC50 was > 5 µM. The “Fold activation, MUP esterase assay” value worked out at 1.7 ± 0.2 fold on LCAT G71I and 0.99 ± 0.03 fold on LCAT Y51S/G71I. The “MUP assay EC50” value on LCAT Y51S/G71I was “no effect”.

Consider `O=C1CC(O)(C(F)(F)F)c2c(C3CCN(c4cnc(C(F)(F)F)cn4)CC3)noc2N1` (stereo not shown) [compound 9, 4-hydroxy-4-(trifluoromethyl)−3-(1-(5-(trifluoromethyl)pyrazin-2-yl)piperidin-4-yl)−4,5-dihydroisoxazolo[5,4-b]pyridin-6(7H)-one], for which the “Thermal stabilization of WT LCAT (DSF)” value at WT LCAT is “do not stabilize; also recorded: could not thermal stabilize”. Besides, on LCAT G71I, the “Fold activation, MUP esterase assay” value was 0.96 ± 0.01 fold and the “MUP assay EC50” value is “no effect”. Besides, at LCAT Y51S/G71I, the “Fold activation, MUP esterase assay” value turned out to be 0.97 ± 0.003 fold and the “MUP assay EC50” value is “no effect”.
